Data reported in paper PMC10300102, “In vivo inhibition of nuclear ACE2 translocation protects against SARS-CoV-2 replication and lung damage through epigenetic imprinting” (Nature Communications, 2023).
Where “and” joins values, the source holds several entries; their conditions need not be identical. Equal entries are not always repeated. Where two headings read alike, the source gives them in different places. Where a SMILES comes first, the peptide text is derived from it. The star is where a group is joined. Myristoyl = CCCCCCCCCCCCCC(=O)*

Columns and labels:
ACE2 = biological target: T1, ACE2 (Homo sapiens, UniProt Q9BYF1); test: ACE2 activity assay in Caco2 cell lysates; format: biochemical; settings: Caco2 cells treated 50 µM 24 h, fluorometric kit, n = 3 technical replicates
T1 construct: endogenous in cells; host or cells: Caco2
T1 sequence (Q9BYF1 18-805): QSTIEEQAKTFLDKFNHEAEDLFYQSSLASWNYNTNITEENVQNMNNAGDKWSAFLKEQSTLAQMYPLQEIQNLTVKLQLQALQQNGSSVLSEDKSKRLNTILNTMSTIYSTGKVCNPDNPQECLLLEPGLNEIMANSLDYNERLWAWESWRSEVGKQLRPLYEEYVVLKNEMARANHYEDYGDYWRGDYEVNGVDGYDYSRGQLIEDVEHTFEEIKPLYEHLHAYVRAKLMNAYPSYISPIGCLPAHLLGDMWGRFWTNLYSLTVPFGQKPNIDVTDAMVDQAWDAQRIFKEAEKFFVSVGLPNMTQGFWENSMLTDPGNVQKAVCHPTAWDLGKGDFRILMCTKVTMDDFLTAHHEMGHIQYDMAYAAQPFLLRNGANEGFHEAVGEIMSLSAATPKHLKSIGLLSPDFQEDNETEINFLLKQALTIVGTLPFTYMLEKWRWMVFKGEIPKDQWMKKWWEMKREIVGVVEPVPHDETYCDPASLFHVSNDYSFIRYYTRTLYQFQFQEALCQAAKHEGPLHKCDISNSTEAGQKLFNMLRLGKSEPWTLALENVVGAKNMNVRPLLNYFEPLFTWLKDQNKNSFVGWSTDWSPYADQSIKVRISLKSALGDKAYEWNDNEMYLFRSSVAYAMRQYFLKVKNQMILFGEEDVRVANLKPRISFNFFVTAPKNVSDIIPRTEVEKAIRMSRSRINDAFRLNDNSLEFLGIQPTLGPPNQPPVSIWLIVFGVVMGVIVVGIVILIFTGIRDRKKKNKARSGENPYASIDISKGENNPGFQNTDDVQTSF
Method: Caco2 cells were seeded in T75 flasks using complete DMEM medium as above. Cells were treated with NACEi2 (50 µM) for 24 h. 1 × 10^6 cells were harvested, and the ACE2 activity assay was performed using the ACE2 Activity Assay Kit (Fluorometric) (ab273297, Abcam, Cambridge, UK) following the manufacturer’s instructions. ACE2 positive control with diluted ACE2 inhibitor was used as a negative control, and cell lysate with lysis buffer only was used as the background control. Fluorescence (Ex/Em = 320/420 nm) was measured in kinetic mode for 30 min (5 min intervals) at room temperature with a Biotek Synergy H4 Multimode Scanner.

CD14+ monocytes = format: cell-based, human
SARS-CoV-2 spike protein = system: SARS-CoV-2 spike protein; parameters: species or system golden Syrian hamsters; settings: hamster, in vivo
[1] = biological target: T2, ACE2-IMPα interactions in H1299 cells (Homo sapiens, UniProt P52294); test: Duolink proximity ligation assay; format: cell-based; settings: 0.0015, 0.0977 and 6.25 µM
T2 construct: endogenous in cells; host or cells: NCI-H1299
T2 sequence (P52294 whole entry): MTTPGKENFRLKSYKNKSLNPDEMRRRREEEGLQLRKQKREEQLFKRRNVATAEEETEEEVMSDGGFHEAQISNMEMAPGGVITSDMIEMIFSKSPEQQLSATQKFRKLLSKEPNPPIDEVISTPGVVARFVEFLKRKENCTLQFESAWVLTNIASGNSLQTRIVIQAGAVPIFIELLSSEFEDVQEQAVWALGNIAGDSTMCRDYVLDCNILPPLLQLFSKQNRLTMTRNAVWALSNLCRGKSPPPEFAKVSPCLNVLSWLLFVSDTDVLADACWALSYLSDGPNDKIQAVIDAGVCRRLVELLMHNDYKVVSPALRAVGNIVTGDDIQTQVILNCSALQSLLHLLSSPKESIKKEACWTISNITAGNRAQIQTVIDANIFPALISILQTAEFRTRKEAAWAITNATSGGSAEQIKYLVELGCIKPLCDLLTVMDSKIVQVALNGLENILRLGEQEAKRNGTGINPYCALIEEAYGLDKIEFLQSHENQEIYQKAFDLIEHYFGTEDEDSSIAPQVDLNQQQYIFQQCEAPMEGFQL
Method: The Duolink proximity ligation assay was used with PLA probe anti-mouse PLUS (DUO92001), PLA probe anti-rabbit MINUS (DUO92005), and the Duolink In Situ Detection Reagent Red kit (DUO92008) (Sigma-Aldrich). Cells were fixed, permeabilized, and incubated with primary ACE2 antibodies targeting the NLS region and IMPα1 (staining conditions are shown in Supplementary Table 4). Cells were processed according to the manufacturer’s instructions. Finally, coverslips were mounted onto slides and examined as above. Image segmentation and analysis were carried out using QuPath open software (version 0.4.3) for bioimage analysis[64] with a custom script. An analysis workflow was developed with the following steps: (i) threshold-based cell detection using DAPI staining to create a mask for detected nuclei along with a 5 µm cell expansion setting to denote the cell cytoplasm boundary; and (ii) use of the QuPath subcellular detection module to detect the Duolink-positive spots in the Alexa Fluor 555 channel in each cell. The two functions were wrapped in a script to allow for batch analysis of images and data export. Total dots were counted per cell and then averaged for each cell and experimental group; approximately 100 cells were counted per group.

[2] = system: NFACT1, C-Rel, ACE2, pPKC-zeta, Nurr1/Nur77, HDAC1 or NFKB p50; format: cell-based; settings: Fig. 1d
H3K27ac in CD14+ PBMCs = test: H3K27ac nuclear fluorescence intensity and clock scan in CD14+ PBMCs; format: cell-based, human; settings: CD14+ PBMCs of PB and PI patients
[3] = system: SARS-CoV-2 (QLD02) in Caco2 cells; settings: cited from earlier work
[4] = In vitro monkey plasma assay; format: in vitro ADME, cynomolgus monkey; settings: for Concentration: single replicates
Method: Briefly, pooled frozen plasma was thawed at 37 °C prior to experiments. Plasma was centrifuged at 3720 x g for 5 min and any clots were removed. All blanks and working solutions were aliquoted on an Apricot automation workstation (2 μL/well of working solution (100 μM) with 98 μL plasma for NACE2i peptide (CP300638) and control compounds somatostatin acetate and procaine hydrochloride). All reaction plates containing mixtures of NACE2i, somatostatin acetate, and procaine hydrochloride and plasma were incubated at 37 °C in a water bath for 0, 15, 30, 60, 120, 240, and 360 min. Incubation was stopped with 4% H3PO4 and stop solution (200 ng/mL tolbutamide and 200 ng/mL labetalol in MeOH) to precipitate protein. Each plate was sealed and shaken for 20 min and then centrifuged at 3720 x g at 4 °C for 20 min. After centrifugation, the Apricot workstation was used to transfer 150 μL supernatant to each bioanalysis plate, which was then sealed and shaken for 10 min prior to LC-MS/MS analysis as per the manufacturer’s guidelines. LC: Shimadzu LC 30-AD, MS: QTRAP 6500 + , Autosampler: CTC PAL.

[5] = system: perforin-positive and CD3+ cells; format: in vivo, golden Syrian hamsters; settings: hamster lungs 2 dpi; for %CD3+ / %Perforin+: individual animals, n=5
[6] = parameters: species or system golden Syrian hamsters; settings: hamster, in vivo
[7] = system: SARS-CoV-2-induced lung pathology; parameters: species or system golden Syrian hamsters; settings: hamster, in vivo

SMILES: CCCCCCCCCCCCCC(=O)N[C@H](C(=O)NCC(=O)N[C@H](C(=O)N[C@@H](CCCNC(=N)N)C(=O)N[C@@H](CC(=O)O)C(=O)N[C@@H](CCCNC(=N)N)C(=O)N[C@@H](CCCCN)C(=O)N[C@@H](CCCCN)C(=O)N[C@@H](CCCCN)C(=O)N[C@@H](CC(N)=O)C(=O)N[C@@H](CCCCN)C(=O)N[C@@H](C)C(=O)N[C@@H](CCCNC(=N)N)C(=O)N[C@@H](CO)C(=O)O)[C@@H](C)CC)[C@@H](C)O [NACE2i] (Myristoyl-TGIRDRKKKNKARS-OH)
- ACE2 enzymatic activity (ACE2): no impact
- ACE2me expression in CD14+ monocytes (CD14+ monocytes): induced
- CD14+ACE2 NFI (CD14+ monocytes): 581.219 and 687.373 and 742.928 and 1006.4 and 850.738 and 975.203 and 677.429 and 828.535
- IL-6 expression in CD14+ monocytes (CD14+ monocytes): significantly decreased
- nuclear ACE2 expression in CD14+ monocytes (CD14+ monocytes): significantly decreased
- nuclear ACE2 expression in infected CD14+ monocytes (CD14+ monocytes): reduced
- SARS-CoV-2 spike protein signal intensity (SARS-CoV-2 spike protein): significantly reduced
- population of SARS-CoV-2 spike protein-positive cells in bronchiolar epithelium (SARS-CoV-2 spike protein): significantly reduced
- ACE2-IMPα interactions (Duolink) [1]: significantly inhibited ACE2-IMPα interactions in a dose-dependent manner
- selectivity for nuclear ACE2 versus other nuclear proteins of the importin pathway (NFI) [2]: specifically targets nuclear ACE2 and not other nuclear proteins
- H3K7ac mark (H3K27ac in CD14+ PBMCs): successfully induced
- SARS-CoV-2 replication in Caco2 cells [3]: significantly inhibit
- Concentration ([4]; cynomolgus monkey plasma, time 0 min): 2270 nM and 2330 nM
- Concentration ([4]; cynomolgus monkey plasma, time 15 min): 1960 nM and 1620 nM
- Concentration ([4]; cynomolgus monkey plasma, time 30 min): 2060 nM and 2030 nM
- Concentration ([4]; cynomolgus monkey plasma, time 60 min): 1840 nM and 1540 nM
- Concentration ([4]; cynomolgus monkey plasma, time 120 min): 1740 nM and 1890 nM
- Concentration ([4]; cynomolgus monkey plasma, time 240 min): 1980 nM and 1920 nM
- % Remaining ([4]; cynomolgus monkey plasma, time 360 min, n=2): 76.7741%
- Concentration ([4]; cynomolgus monkey plasma, time 360 min): 1740 nM and 1850 nM
- remaining at 0.25 h, 2 µM ([4]; monkey, plasma (pooled, frozen), cynomolgus monkey plasma, time 15 min, n=2): 86.2%
- remaining at 0.5 h, 2 µM ([4]; monkey, plasma (pooled, frozen), cynomolgus monkey plasma, time 30 min, n=2): 90.6%
- remaining at 1 h, 2 µM ([4]; monkey, plasma (pooled, frozen), cynomolgus monkey plasma, time 60 min, n=2): 81.1%
- remaining at 2 h, 2 µM ([4]; monkey, plasma (pooled, frozen), cynomolgus monkey plasma, time 120 min, n=2): 76.6%
- remaining at 4 h, 2 µM ([4]; monkey, plasma (pooled, frozen), cynomolgus monkey plasma, time 240 min, n=2): 87.4%
- half-life at 2 µM ([4]; pooled male cynomolgus monkey plasma, 2 µL of 100 µM working solution + 98 µL plasma, 37 °C, 0-360 min, LC-MS/MS, read-out: T1/2 in plasma): 14.5 h
- % remaining in plasma after 360 min incubation ([4]; pooled male cynomolgus monkey plasma, 2 µL of 100 µM working solution + 98 µL plasma, 37 °C, 360 min, LC-MS/MS): 78%
- %CD3+ ([5]; i.p. NACE2i): 7.228% and 6.247% and 7.351% and 8.086%
- %Perforin+ ([5]; i.p. NACE2i): 14.1151% and 9.254% and 20.5795% and 12.5121%
- %CD3+ ([5]; i.v. NACE2i): 6.775% and 4.046% and 7.435% and 7.728% and 7.891%
- %Perforin+ ([5]; i.v. NACE2i): 8.914% and 7.676% and 12.1345% and 7.891% and 7.955%
- number of CD3+ cells ([5]; i.v. or i.p.): significantly increased
- proportion of perforin-positive cells ([5]; i.v. or i.p.): significantly increased
- decrease in mean body weights [6]: lower than vehicle controls
- lung histopathological changes [7]: minimal alveolar, bronchiolar, or vascular changes
- mean cumulative histopathological scores versus vehicle [7]: substantially lower
- Bronchitis/bronchiolitis ([7]; ip): 0
- Interstital inflammation ([7]; ip): 0
- Vasculitis ([7]; ip): 0
